According to ChEMBL document CHEMBL1122875, “Orally absorbable cephalosporin antibiotics. 3. Preparation of biologically active R isomer of 7-(3-benzothienylglycylamido)deacetoxycephalosporanic acid” (1985):
In brackets after ≈: the same amount, converted by molar mass.

Experiments:
Type in all cases: functional
Haemophilus influenzae [1] = test: The compound was tested for antibacterial activity against resistant Haemophilus influenzae 76.
Staphylococcus aureus [2] = test: Tested for antibacterial activity against methicillin resistant Staphylococcus aureus X400.
Streptococcus pneumoniae = test: The compound was tested for antibacterial activity against Streptococcus pneumoniae Park.
Staphylococcus aureus [3] = test: Tested for antibacterial activity against methicillin resistant Staphylococcus aureus S13E.
Streptococcus = test: The compound was tested for antibacterial activity against Streptococcus group D X66.
Staphylococcus aureus [4] = test: Tested for antibacterial activity against penicillin G sensitive Staphylococcus aureus X1.1
Streptococcus pyogenes = test: The compound was tested for antibacterial activity against Streptococcus pyogenes C203.
Staphylococcus aureus [5] = test: Tested for antibacterial activity against penicillin G resistant Staphylococcus aureus V41.
Haemophilus influenzae [6] = test: The compound was tested for antibacterial activity against sensitive Haemophilus influenzae C.L.
[7] = system: Staphylococcus epidermidis; test: The compound was tested for antibacterial activity against Staphylococcus epidermidis EP11.

SMILES	MIC (Haemophilus influenzae [1])	MIC (Staphylococcus aureus [2])	MIC (Streptococcus pneumoniae)	MIC (Staphylococcus aureus [3])	MIC (Streptococcus)	MIC (Staphylococcus aureus [4])	MIC (Streptococcus pyogenes)	MIC (Staphylococcus aureus [5])	MIC (Haemophilus influenzae [6])	MIC [7]
CC1=C(C(=O)O)N2C(=O)C(NC(=O)[C@@H](N)c3csc4ccccc34)C2SC1 (some centres not stated)	16 µg/mL (≈ 39.7 µM)	> 128 µg/mL	16 µg/mL (≈ 39.7 µM)	128 µg/mL (≈ 317 µM)	> 128 µg/mL	32 µg/mL (≈ 79.3 µM)	16 µg/mL (≈ 39.7 µM)			
CC1=C(C(=O)O)N2C(=O)C(NC(=O)[C@H](N)c3csc4ccccc34)C2SC1 (some centres not stated)	1 µg/mL (≈ 2.48 µM)	32 µg/mL (≈ 79.3 µM)	0.5 µg/mL (≈ 1.24 µM)	4 µg/mL (≈ 9.91 µM)	128 µg/mL (≈ 317 µM)	1 µg/mL (≈ 2.48 µM)	0.5 µg/mL (≈ 1.24 µM)	4 µg/mL (≈ 9.91 µM)	2 µg/mL (≈ 4.96 µM)	4 µg/mL (≈ 9.91 µM)
CC1=C(C(=O)O)N2C(=O)C(NC(=O)C(N)c3csc4ccccc34)C2SC1 (configuration not stated)	2 µg/mL (≈ 4.96 µM)		4 µg/mL (≈ 9.91 µM)	16 µg/mL (≈ 39.7 µM)	> 128 µg/mL	2 µg/mL (≈ 4.96 µM)	2 µg/mL (≈ 4.96 µM)	8 µg/mL (≈ 19.8 µM)	4 µg/mL (≈ 9.91 µM)	4 µg/mL (≈ 9.91 µM)
CC1=C(C(=O)O)N2C(=O)[C@@H](NC(=O)[C@H](N)c3ccccc3)[C@H]2SC1 [CEPHALEXIN ANHYDROUS]	8 µg/mL (≈ 23 µM)		2 µg/mL (≈ 5.76 µM)			4 µg/mL (≈ 11.5 µM)	0.5 µg/mL (≈ 1.44 µM)		8 µg/mL (≈ 23 µM)	32 µg/mL (≈ 92.1 µM)
